Counter-ions that a name gives are not always drawn.
Tests used:
Type in all cases: physicochemical
[1] = hygroscopicity
Experimental: Further, the Form B forms orthorhombic crystals belonging to the P2(1)2(1)2(1) space group. Form B is further characterized in having an onset of melting at about 215° C. as measured by differential scanning calorimetry at a heating rate of 5 degrees per minute. […] In addition, Form B has a hygroscopicity of approximately 0.2% at 90% relative humidity.

[2] = solid-state stability and excipient compatibility
[3] = stability of the hydrate under vacuum at moderate temperature; settings: for stability (in words): ambient conditions / low humidity
Source text: The L-tartrate salt exists as three possible forms: two anhydrous forms and one hydrate form.

[4] = polymorph stability / interconversion on exposure to relative humidity; settings: for stability at RH greater than 60%: experiments at 75% and 87% relative humidity
Source text: Upon filtering off the Form C which precipitates out as a white salt, the Form C salt may be air dried.
Experiments at 23% and 43% RH have verified this phenomena.

[5] = native pH in aqueous solution
[6] = aqueous solubility; settings: water, pH 3.3, water

O=C(O)C(O)C(O)C(=O)O.c1cnc2cc3c(cc2n1)C1CNCC3C1 [Form A′, D-tartrate salt of 5,8,14-triazatetracyclo[10.3.1.0^2,11.0^4,9]-hexadeca-2(11),3,5,7,9-pentaene]
hygroscopicity compared with the corresponding Form A, B or C of the L-tartrate salt [1]: the same

c1cnc2cc3c(cc2n1)C1CNCC3C1 [L-tartrate salt, L-tartrate salt of 5,8,14-triazatetracyclo[10.3.1.0^2,11.0^4,9]-hexadeca-2(11),3,5,7,9-pentaene]
hygroscopicity (in words) [1]: very slightly hygroscopic | solid-state stability [2]: high solid-state stability | inertness towards excipients ([2]; common excipients): relative inertness towards common excipients

O=C(O)C(O)C(O)C(=O)O.c1cnc2cc3c(cc2n1)C1CNCC3C1 [Form C, L-Tartrate Saft Form C of 5,8,14-Triazatetracyclo[10.3.1.0^2,11.0^4,9]-hexadeca-2(11),3,5,7,9-pentaene (Form C)]
time the hydrate maintains its one equivalent of water under vacuum ([3]; 45° C. vacuum oven): ≥ 24 h | stability (in words) [3]: relatively stable under ambient conditions | time after which the hydrate loses water and converts to anhydrous Form B ([3]; under vacuum at moderate temperatures): ≥ 48 h | stability at RH greater than 60% [4]: relatively stable over a several month period | behaviour on exposure to less than 50% RH ([4]; less than 50% RH, experiments at 23% and 43% RH): more slowly dehydrate

c1cnc2cc3c(cc2n1)C1CNCC3C1 [Form B, L-Tartrate Salt of 5,8,14-Triazatetracyclo[10.3.1.0^2,11.0^4,9]-hexadeca-2(11),3,5,7,9-pentaene (Anhydrous Polymorph, Form B)]
stability (in words) [3]: most stable of the polymorphs at low humidity | hygroscopicity ([1]; at 90% relative humidity): approximately 0.2% | stability at RH greater than 60% [4]: relatively stable over a several month period | time for conversion of Form B to Form C ([4]; exposed to 100% RH): ≤ 2 days | native pH in aqueous solution [5]: about 3.3 | solubility [6]: ~156 mg/mL
